From patent US7728028B2, “Substituted imidazoline compounds” (Gruenenthal GmbH, priority 2005, dated 2010)

Biological target: T1, human μ-opiate receptor (Homo sapiens, UniProt P35372)
T1 construct: purchased PerkinElmer Life Sciences, Zaventem, Belgium RB-HOM; host or cells: CHO-K1 cells (recombinant expression; membrane preparation)
Experiment: Affinity for the human μ-opiate receptor ([3H]-naloxone displacement, SPA)
Settings: Table 1, aldehydes; test substance 1 μmole/l; inhibition of specific [3H]-naloxone binding; CHO-K1 membranes; read-out: μ-Opioid receptor, % inhibition [1 μM]
Procedure: Investigations on the Efficacy of the Compounds According to the Invention Method for Determining the Affinity for the Human μ-Opiate Receptor
The receptor affinity for the human μ-opiate receptor is determined in a homogeneous batch in microtiter plates. For this purpose dilution series of the substances to be tested are incubated with a receptor membrane preparation (15-40 μg protein/250 μl incubation batch) of CHO-K1 cells, which express the human μ-opiate receptor (RB-HOM receptor membrane preparation from PerkinElmer Life Sciences, Zaventem, Belgium), in the presence of 1 nmole/l of the radioactive ligand [^3H]-naloxone (NET719, PerkinElmer Life Sciences company, Zaventem, Belgium) and 1 mg WGA-SPA beads (wheat germ agglutinin SPA beads from Amersham/Pharmacia, Freiburg, Germany) in a total volume of 250 μl for 90 minutes at room temperature. 50 mmole/l of Tris-HCl supplemented with 0.06% bovine serum albumin is used as incubation buffer. In order to determine the non-specific binding, 100 μmole/l of naloxone is additionally added. After the end of the 90 minutes' incubation time the microtiter plates are centrifuged for 20 minutes at 1000 g and the radioactivity is measured in a beta counter (Microbeta-Trilux, PerkinElmer Wallac, Freiburg, Germany). The percentage displacement of the radioactive ligand from its binding to the human μ-opiate receptor at a concentration of the test substances of 1 μmole/l is determined and is given as percentage inhibition of the specific binding.

T1 sequence (P35372 whole entry): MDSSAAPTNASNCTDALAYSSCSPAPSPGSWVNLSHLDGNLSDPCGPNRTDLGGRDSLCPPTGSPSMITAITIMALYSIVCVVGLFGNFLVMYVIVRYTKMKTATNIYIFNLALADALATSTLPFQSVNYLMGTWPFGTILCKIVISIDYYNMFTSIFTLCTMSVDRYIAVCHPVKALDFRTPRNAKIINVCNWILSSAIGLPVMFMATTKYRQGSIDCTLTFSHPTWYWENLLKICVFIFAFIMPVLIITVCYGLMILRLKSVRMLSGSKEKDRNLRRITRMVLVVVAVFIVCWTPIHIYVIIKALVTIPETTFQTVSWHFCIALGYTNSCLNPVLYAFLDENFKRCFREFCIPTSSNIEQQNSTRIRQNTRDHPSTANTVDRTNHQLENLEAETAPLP

Structure (SMILES) | inhibition at 1 µM
CN(C)C(c1ccc(Cl)cc1)C1CCC(C=O)CC1 (stereo not shown) [Example 9c, 4-[(4-chlorophenyl)-dimethylaminomethyl]-cyclohexane-carbaldehyde] | 45%

Same assay, conditions: Table 2, Examples 11-161; test substance 1 μmole/l; inhibition of specific [3H]-naloxone binding; CHO-K1 membranes; read-out: μ-Opioid receptor, % inhibition [1 μM]

Structure (SMILES) | inhibition at 1 µM
CCCCN1C=NC(CSCc2ccccc2)(C(=O)OC)C1CC1CCC(C(c2cccc(F)c2)N(C)C)CC1 (stereo not shown) [Example 75, 4-benzylsulfanylmethyl-1-butyl-5-{4-[dimethylamino-(3-fluorophenyl)-methyl]-cyclohexylmethyl}-4,5-dihydro-1H-imidazole-4-carboxylic acid methyl ester] | 98%
COC(=O)C1(CC(C)C)N=CN(CCc2ccccc2)C1C1CCC(C(c2cccc(F)c2)N(C)C)CC1 (stereo not shown) [Example 37, 5-{4-[dimethylamino-(3-fluorophenyl)-methyl]-cyclohexyl}-4-isobutyl-1-phenethyl-4,5-dihydro-1H-imidazole-4-carboxylic acid methyl ester] | 93%
CCCN1C=NC(CSC)(C(=O)OC)C1CC1CCC(C(c2cccc(F)c2)N(C)C)CC1 (stereo not shown) [Example 158, 5-{4-[dimethylamino-(3-fluorophenyl)-methyl]-cyclohexylmethyl}-4-methylsulfanylmethyl-1-propyl-4,5-dihydro-1H-imidazole-4-carboxylic acid methyl ester] | 95%
COC(=O)C1(Cc2ccc(Cl)cc2)N=CN(CCc2ccccc2)C1CC1CCC(C(c2ccc(Cl)cc2)N(C)C)CC1 (stereo not shown) [Example 44, 4-(4-chlorobenzyl)-5-{4-[(4-chlorophenyl)-dimethylaminomethyl]-cyclohexylmethyl}-1-phenethyl-4,5-dihydro-1H-imidazole-4-carboxylic acid methyl ester] | 91%
COC(=O)C1(Cc2ccc(Cl)cc2)N=CN(C2CCCCC2)C1C1CCC(C(c2ccc(Cl)cc2)N(C)C)CC1 (stereo not shown) [Example 15, 4-(4-chlorobenzyl)-5-{4-[(4-chlorophenyl)-dimethylaminomethyl]-cyclohexyl}-1-cyclohexyl-4,5-dihydro-1H-imidazole-4-carboxylic acid methyl ester] | 76%
CCCCN1C=NC(CC(C)C)(C(=O)OC)C1C1CCC(C(c2cccc(F)c2)N(C)C)CC1 (stereo not shown) [Example 29, 1-butyl-5-{4-[dimethylamino-(3-fluorophenyl)-methyl]-cyclohexyl}-4-isobutyl-4,5-dihydro-1H-imidazole-4-carboxylic acid methyl ester] | 89%
COC(=O)C1(CSCc2ccccc2)N=CN(Cc2ccccc2)C1C1CCC(C(c2ccc(Cl)cc2)N(C)C)CC1 (stereo not shown) [Example 98, 1-benzyl-4-benzylsulfanylmethyl-5-{4-[(4-chlorophenyl)-dimethylaminomethyl]-cyclohexyl}-4,5-dihydro-1H-imidazole-4-carboxylic acid methyl ester] | 95%
COC(=O)C1(Cc2ccc(Cl)cc2)N=CN(Cc2ccccc2)C1C1CCC(C(c2ccc(Cl)cc2)N(C)C)CC1 (stereo not shown) [Example 49, 1-benzyl-4-(4-chlorobenzyl)-5-{4-[(4-chlorophenyl)-dimethylaminomethyl]-cyclohexyl}-4,5-dihydro-1H-imidazole-4-carboxylic acid methyl ester] | 84%
COC(=O)CCC1(C(=O)OC)N=CN(CCc2ccccc2)C1CC1CCC(C(CCc2ccccc2)N(C)C)CC1 (stereo not shown) [Example 84, 5-[4-(1-dimethylamino-3-phenylpropyl)-cyclohexylmethyl]-4-(2-methoxycarbonylethyl)-1-phenethyl-4,5-dihydro-1H-imidazole-4-carboxylic acid methyl ester] | 75%
CCCN1C=NC(C)(C(=O)OC)C1CC1CCC(C(c2cccc(F)c2)N(C)C)CC1 (stereo not shown) [Example 117, 5-{4-[dimethylamino-(3-fluorophenyl)-methyl]-cyclohexylmethyl}-4-methyl-1-propyl-4,5-dihydro-1H-imidazole-4-carboxylic acid methyl ester] | 88%
CCCCC1(C(=O)OC)N=CN(CCC)C1C1CCC(C(c2cccc(F)c2)N(C)C)CC1 (stereo not shown) [Example 23, 4-butyl-5-{4-[dimethylamino-(3-fluorophenyl)-methyl]-cyclohexyl}-1-propyl-4,5-dihydro-1H-imidazole-4-carboxylic acid methyl ester] | 76%
CCCCN1C=NC(CCC(=O)OC)(C(=O)OC)C1CC1CCC(C(CCc2ccccc2)N(C)C)CC1 (stereo not shown) [Example 78, 1-butyl-5-[4-(1-dimethylamino-3-phenylpropyl)-cyclohexylmethyl]-4-(2-methoxycarbonylethyl)-4,5-dihydro-1H-imidazole-4-carboxylic acid methyl ester] | 67%
CCCN1C=NC(Cc2ccc(Cl)cc2)(C(=O)OC)C1C1CCC(C(c2cccc(F)c2)N(C)C)CC1 (stereo not shown) [Example 22, 4-(4-chlorobenzyl)-5-{4-[dimethylamino-(3-fluorophenyl)-methyl]-cyclohexyl}-1-propyl-4,5-dihydro-1H-imidazole-4-carboxylic acid methyl ester] | 88%
COC(=O)C1(CSCc2ccccc2)N=CN(Cc2ccccc2)C1CC1CCC(C(c2ccc(Cl)cc2)N(C)C)CC1 (stereo not shown) [Example 101, 1-benzyl-4-benzylsulfanylmethyl-5-{4-[(4-chlorophenyl)-dimethylaminomethyl]-cyclohexylmethyl}-4,5-dihydro-1H-imidazole-4-carboxylic acid methyl ester] | 96%
CCCN1C=NC(CCC(=O)OC)(C(=O)OC)C1CC1CCC(C(CCc2ccccc2)N(C)C)CC1 (stereo not shown) [Example 71, 5-[4-(1-dimethylamino-3-phenylpropyl)-cyclohexylmethyl]-4-(2-methoxycarbonylethyl)-1-propyl-4,5-dihydro-1H-imidazole-4-carboxylic acid methyl ester] | 78%
CCCN1C=NC(CSC)(C(=O)OC)C1C1CCC(C(c2cccc(F)c2)N(C)C)CC1 (stereo not shown) [Example 57, 5-{4-[dimethylamino-(3-fluorophenyl)-methyl]-cyclohexyl}-4-methylsulfanylmethyl-1-propyl-4,5-dihydro-1H-imidazole-4-carboxylic acid methyl ester] | 86%
CCCCN1C=NC(CCCC)(C(=O)OC)C1C1CCC(C(c2ccc(Cl)cc2)N(C)C)CC1 (stereo not shown) [Example 33, 1,4-dibutyl-5-{4-[(4-chlorophenyl)-dimethylaminomethyl]-cyclohexyl}-4,5-dihydro-1H-imidazole-4-carboxylic acid methyl ester] | 85%
CCCCN1C=NC(CCC(=O)OC)(C(=O)OC)C1CC1CCC(C(c2cccc(F)c2)N(C)C)CC1 (stereo not shown) [Example 72, 1-butyl-5-{4-[dimethylamino-(3-fluorophenyl)-methyl]-cyclohexylmethyl}-4-(2-methoxycarbonylethyl)-4,5-dihydro-1H-imidazole-4-carboxylic acid methyl ester] | 95%
COC(=O)CCC1(C(=O)OC)N=CN(Cc2ccccc2)C1CC1CCC(C(c2cccc(F)c2)N(C)C)CC1 (stereo not shown) [Example 85, 1-benzyl-5-{4-[dimethylamino-(3-fluorophenyl)-methyl]-cyclohexylmethyl}-4-(2-methoxycarbonylethyl)-4,5-dihydro-1H-imidazole-4-carboxylic acid methyl ester] | 95%
CCCCC1(C(=O)OC)N=CN(Cc2ccccc2)C1CC1CCC(C(c2ccc(Cl)cc2)N(C)C)CC1 (stereo not shown) [Example 114, 1-benzyl-4-butyl-5-{4-[(4-chlorophenyl)-dimethylaminomethyl]-cyclohexylmethyl}-4,5-dihydro-1H-imidazole-4-carboxylic acid methyl ester] | 86%
COC(=O)C1(CC(C)C)N=CN(Cc2ccccc2)C1C1CCC(C(c2ccc(Cl)cc2)N(C)C)CC1 (stereo not shown) [Example 48, 1-benzyl-5-{4-[(4-chlorophenyl)-dimethylaminomethyl]-cyclohexyl}-4-isobutyl-4,5-dihydro-1H-imidazole-4-carboxylic acid methyl ester] | 93%
CCCC1(C(=O)OC)N=CN(Cc2ccccc2)C1CC1CCC(C(c2ccc(F)cc2)N(C)C)CC1 (stereo not shown) [Example 141, 1-benzyl-5-{4-[dimethylamino-(4-fluorophenyl)-methyl]-cyclohexylmethyl}-4-propyl-4,5-dihydro-1H-imidazole-4-carboxylic acid methyl ester] | 98%
CCCCN1C=NC(C(=O)OC)(C(C)CC)C1CC1CCC(C(c2cccc(F)c2)N(C)C)CC1 (stereo not shown) [Example 73, 1-butyl-4-sec-butyl-5-{4-[dimethylamino-(3-fluorophenyl)-methyl]-cyclohexylmethyl}-4,5-dihydro-1H-imidazole-4-carboxylic acid methyl ester] | 92%
CCCCC1(C(=O)OC)N=CN(CCc2ccccc2)C1C1CCC(C(c2ccc(Cl)cc2)N(C)C)CC1 (stereo not shown) [Example 42, 4-butyl-5-{4-[(4-chlorophenyl)-dimethylaminomethyl]-cyclohexyl}-1-phenethyl-4,5-dihydro-1H-imidazole-4-carboxylic acid methyl ester] | 94%
